From PubChem BioAssay AID1963448 (Molecular Pharmacology Branch, DTP, NCI, 2024)
Blank lines part the entries; values can stand above or below the compound they belong to.

Test system: 616215-338-R-J1-PDC complex spheroid growth, % test/control
Assay: Anticancer human tumor 616215-338-R-J1-PDC patient-derived colon adenocarcinoma cell line growth inhibition [Asc]
Conditions: for IC50: curve of first compound; for viability, T/C: stronger effect = lower value
Method in brief: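 Stromal components (HUVEC and hMSC) are co-assembled with the cancer cells into multicellular spheroids. Drugs are then added singly or paired, at concentrations falling by half-log increments from a clinically achievable maximum, capped at 10 microM without known Cmax.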
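Also: spheroids exposed to agents for seven days before readout.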
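For viability, T/C in this document: 100% = DMSO vehicle control viability.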

IC50 (second compound 0.00316 µM): > 300 nM
IC50 (second compound 0.01 µM): > 300 nM
IC50 (second compound 0.0316 µM): > 300 nM
IC50 (second compound 0.1 µM): > 300 nM
IC50 (second compound 0.316 µM): > 300 nM
IC50 (second compound 1 µM): 191 nM
SMILES: NC(=O)C(=Cn1cnc(-c2cc(C(F)(F)F)cc(C(F)(F)F)c2)n1)c1cncnc1 + CNC(C)C(=O)NC1CN(S(=O)(=O)c2cccc(S(=O)(=O)N3CCC4CCC(C(=O)NC(c5ccccc5)c5ccccc5)N4C(=O)C(NC(=O)C(C)NC)C3)c2)CCC2CCC(C(=O)NC(c3ccccc3)c3ccccc3)N2C1=O
viability, T/C (second compound 0.00316 µM, first compound 0.000949 µM): 104%
viability, T/C (second compound 0.00316 µM, first compound 0.003 µM): 105%
viability, T/C (second compound 0.00316 µM, first compound 0.00949 µM): 94.3%
viability, T/C (second compound 0.00316 µM, first compound 0.03 µM): 83.3%
viability, T/C (second compound 0.00316 µM, first compound 0.0949 µM): 73.9%
viability, T/C (second compound 0.00316 µM, first compound 0.3 µM): 53.2%
viability, T/C (second compound 0.01 µM, first compound 0.000949 µM): 107%
viability, T/C (second compound 0.01 µM, first compound 0.003 µM): 108%
viability, T/C (second compound 0.01 µM, first compound 0.00949 µM): 96.2%
viability, T/C (second compound 0.01 µM, first compound 0.03 µM): 72%
viability, T/C (second compound 0.01 µM, first compound 0.0949 µM): 76.2%
viability, T/C (second compound 0.01 µM, first compound 0.3 µM): 71.4%
viability, T/C (second compound 0.0316 µM, first compound 0.000949 µM): 115%
viability, T/C (second compound 0.0316 µM, first compound 0.003 µM): 108%
viability, T/C (second compound 0.0316 µM, first compound 0.00949 µM): 95.8%
viability, T/C (second compound 0.0316 µM, first compound 0.03 µM): 64.6%
viability, T/C (second compound 0.0316 µM, first compound 0.0949 µM): 78.4%
viability, T/C (second compound 0.0316 µM, first compound 0.3 µM): 54.7%
viability, T/C (second compound 0.1 µM, first compound 0.000949 µM): 117%
viability, T/C (second compound 0.1 µM, first compound 0.003 µM): 110%
viability, T/C (second compound 0.1 µM, first compound 0.00949 µM): 102%
viability, T/C (second compound 0.1 µM, first compound 0.03 µM): 68.5%
viability, T/C (second compound 0.1 µM, first compound 0.0949 µM): 70.5%
viability, T/C (second compound 0.1 µM, first compound 0.3 µM): 68.5%
viability, T/C (second compound 0.316 µM, first compound 0.000949 µM): 118%
viability, T/C (second compound 0.316 µM, first compound 0.003 µM): 118%
viability, T/C (second compound 0.316 µM, first compound 0.00949 µM): 105%
viability, T/C (second compound 0.316 µM, first compound 0.03 µM): 61.1%
viability, T/C (second compound 0.316 µM, first compound 0.0949 µM): 60.9%
viability, T/C (second compound 0.316 µM, first compound 0.3 µM): 67%
viability, T/C (second compound 1 µM, first compound 0.000949 µM): 112%
viability, T/C (second compound 1 µM, first compound 0.003 µM): 110%
viability, T/C (second compound 1 µM, first compound 0.00949 µM): 71.1%
viability, T/C (second compound 1 µM, first compound 0.03 µM): 88.2%
viability, T/C (second compound 1 µM, first compound 0.0949 µM): 59%
viability, T/C (second compound 1 µM, first compound 0.3 µM): 41.5%

IC50 (second compound 0.00316 µM): 40.6 nM
IC50 (second compound 0.01 µM): 19.2 nM
IC50 (second compound 0.0316 µM): 46.6 nM
IC50 (second compound 0.1 µM): 44.6 nM
IC50 (second compound 0.316 µM): 38.5 nM
IC50 (second compound 1 µM): 24 nM
SMILES: O=C(c1ccc(F)c(F)c1Nc1ccc(I)cc1F)N1CC(O)([C@@H]2CCCCN2)C1 + CNC(C)C(=O)NC1CN(S(=O)(=O)c2cccc(S(=O)(=O)N3CCC4CCC(C(=O)NC(c5ccccc5)c5ccccc5)N4C(=O)C(NC(=O)C(C)NC)C3)c2)CCC2CCC(C(=O)NC(c3ccccc3)c3ccccc3)N2C1=O
viability, T/C (second compound 0.00316 µM, first compound 0.00316 µM): 113%
viability, T/C (second compound 0.00316 µM, first compound 0.01 µM): 94.8%
viability, T/C (second compound 0.00316 µM, first compound 0.0316 µM): 64.3%
viability, T/C (second compound 0.00316 µM, first compound 0.1 µM): 3.19%
viability, T/C (second compound 0.00316 µM, first compound 0.316 µM): 0.64%
viability, T/C (second compound 0.00316 µM, first compound 1 µM): 0.34%
viability, T/C (second compound 0.01 µM, first compound 0.00316 µM): 98.9%
viability, T/C (second compound 0.01 µM, first compound 0.01 µM): 109%
viability, T/C (second compound 0.01 µM, first compound 0.0316 µM): 8.64%
viability, T/C (second compound 0.01 µM, first compound 0.1 µM): 18.4%
viability, T/C (second compound 0.01 µM, first compound 0.316 µM): 2.31%
viability, T/C (second compound 0.01 µM, first compound 1 µM): 2.27%
viability, T/C (second compound 0.0316 µM, first compound 0.00316 µM): 103%
viability, T/C (second compound 0.0316 µM, first compound 0.01 µM): 87.8%
viability, T/C (second compound 0.0316 µM, first compound 0.0316 µM): 71.4%
viability, T/C (second compound 0.0316 µM, first compound 0.1 µM): 8.55%
viability, T/C (second compound 0.0316 µM, first compound 0.316 µM): 1.84%
viability, T/C (second compound 0.0316 µM, first compound 1 µM): 1.89%
viability, T/C (second compound 0.1 µM, first compound 0.00316 µM): 99.6%
viability, T/C (second compound 0.1 µM, first compound 0.01 µM): 99.8%
viability, T/C (second compound 0.1 µM, first compound 0.0316 µM): 70.7%
viability, T/C (second compound 0.1 µM, first compound 0.1 µM): 1.22%
viability, T/C (second compound 0.1 µM, first compound 0.316 µM): 0.55%
viability, T/C (second compound 0.1 µM, first compound 1 µM): 1.32%
viability, T/C (second compound 0.316 µM, first compound 0.00316 µM): 109%
viability, T/C (second compound 0.316 µM, first compound 0.01 µM): 107%
viability, T/C (second compound 0.316 µM, first compound 0.0316 µM): 56%
viability, T/C (second compound 0.316 µM, first compound 0.1 µM): 14.7%
viability, T/C (second compound 0.316 µM, first compound 0.316 µM): 2.54%
viability, T/C (second compound 0.316 µM, first compound 1 µM): 1.35%
viability, T/C (second compound 1 µM, first compound 0.00316 µM): 102%
viability, T/C (second compound 1 µM, first compound 0.01 µM): 106%
viability, T/C (second compound 1 µM, first compound 0.0316 µM): 32.9%
viability, T/C (second compound 1 µM, first compound 0.1 µM): 1.86%
viability, T/C (second compound 1 µM, first compound 0.316 µM): 0.87%
viability, T/C (second compound 1 µM, first compound 1 µM): 1.24%
